# Experiments:
# [1] = cited from earlier work
# Description: The native EntA was stable at 100°C and acidic pH conditions. […] These properties were potentially due to the higher cysteine content of the antimicrobial peptides, similar to the EntA containing four cysteine residues. In addition, the antimicrobial activity of some bacteriocins (nisin, sakacin P and curvacin A) was si ...
# L. ivanovii ATCC19119 [2] = experiment: MIC and MBC, microtiter broth dilution method; assay type: cell-based; settings: Listeria ivanovii, triplicate
# Description: Minimal inhibitory concentrations (MICs) and Minimum bactericidal concentrations (MBCs) assays were determined using the microtiter broth dilution method. Ampicillin was also tested with the same concentration gradient as a positive control. All tests were performed in triplicate.
# L. ivanovii ATCC19119 [3] = experiment: In-vitro killing curve (time-kill) assay; assay type: cell-based, Listeria ivanovii; settings: 2 × MIC, 10 h time-kill
# Description: To evaluate the antibacterial activity of rEntA against L. ivanovii ATCC19119, a time-kill assay was performed as described by the methods of Mao [32]. In addition, tubes with only bacterial inoculum were used as growth controls. All experiments were performed in triplicate.
# [4] = test system: digestive proteases trypsin and pepsin; settings: cited from earlier work
# Source text: Similarly, the purified rEntA, with 12.76% basic amino acids and 10.63% aromatic amino acids, was inactivated with trypsin and pepsin (Figure 4C). This high sensitivity to digestive proteases of rEntA contributes to its safety in foods and drugs, during and after oral administration.
compound,measurement,setting,value
"nisin: class I bacteriocin, widely used in commerce (ITSISLCTPGCKTGALMGCNMKTATCHCSIHVSK; not fully specified; Lantibiotic nisin-A; UniProt P13068 24-57, looked up)",effect of NaCl on antimicrobial activity,[1]; addition of NaCl from 0 to 1.17 M,significantly enhanced
CC1(C)S[C@@H]2[C@H](NC(=O)[C@H](N)c3ccccc3)C(=O)N2[C@H]1C(=O)O [ampicillin],MBC,L. ivanovii ATCC19119 [2],1.56 µg/mL
same,MIC,L. ivanovii ATCC19119 [2],0.39 µg/mL
same,growth of survivors after MVL,L. ivanovii ATCC19119 [3],resumed growth
"pediocin PA-1: class IIa bacteriocin (KYYGNGVTCGKHSCSVDWGKATTCIINNGAMAWATGGHQGNHKC; UniProt P29430 19-62, looked up)",sensitivity to trypsin and pepsin,[4],very sensitive
same,bactericidal activity and overall structure at higher temperatures,[1],well maintained
